Source: ChEMBL document CHEMBL5465560, “Selectivity Literature for EUbOPEN Chemogenomic Library” (2024)
Each block holds one molecule with its values, some of them ahead of it.

Tests used:
[1] = target: T1, Serine/threonine-protein kinase D2 (Homo sapiens) (UniProt Q9BZL6); assay: Selectivity interaction (KinomeScan (DiscoverX)) EUB0000607a PRKD2; conditions: at 10 µM
T1 sequence (whole entry): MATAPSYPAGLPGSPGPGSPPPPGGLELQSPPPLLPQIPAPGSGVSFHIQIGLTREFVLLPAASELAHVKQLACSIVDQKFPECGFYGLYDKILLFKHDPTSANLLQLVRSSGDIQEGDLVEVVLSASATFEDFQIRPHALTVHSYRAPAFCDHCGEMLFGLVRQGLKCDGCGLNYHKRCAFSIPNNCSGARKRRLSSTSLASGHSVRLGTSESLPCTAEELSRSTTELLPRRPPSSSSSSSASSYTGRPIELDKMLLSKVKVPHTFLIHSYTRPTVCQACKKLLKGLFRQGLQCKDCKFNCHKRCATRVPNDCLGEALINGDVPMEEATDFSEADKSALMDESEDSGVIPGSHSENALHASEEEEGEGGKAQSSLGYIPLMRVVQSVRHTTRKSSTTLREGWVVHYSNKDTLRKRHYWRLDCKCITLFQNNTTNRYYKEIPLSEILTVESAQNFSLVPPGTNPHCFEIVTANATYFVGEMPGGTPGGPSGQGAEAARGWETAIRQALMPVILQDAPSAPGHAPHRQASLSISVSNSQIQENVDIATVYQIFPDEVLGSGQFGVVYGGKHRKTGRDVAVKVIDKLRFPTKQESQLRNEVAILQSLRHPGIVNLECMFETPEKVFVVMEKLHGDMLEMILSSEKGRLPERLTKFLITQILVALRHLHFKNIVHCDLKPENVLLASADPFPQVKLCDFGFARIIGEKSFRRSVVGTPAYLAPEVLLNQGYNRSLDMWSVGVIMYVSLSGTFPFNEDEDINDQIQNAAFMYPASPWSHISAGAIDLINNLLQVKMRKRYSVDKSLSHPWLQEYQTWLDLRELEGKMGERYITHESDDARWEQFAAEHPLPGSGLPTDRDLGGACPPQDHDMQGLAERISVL

[2] = target: Platelet-derived growth factor receptor beta (Homo sapiens, UniProt P09619); assay: Selectivity interaction (KinomeScan (DiscoverX)) EUB0000607a PDGFRB; conditions: at 10 µM
[3] = target: Ribosomal protein S6 kinase alpha-2 (Homo sapiens) (UniProt Q15349); assay: Selectivity interaction (ProQinase) EUB0000171b RPS6KA2
Chain of Ribosomal protein S6 kinase alpha-2 (Homo sapiens) (Q15349 whole entry): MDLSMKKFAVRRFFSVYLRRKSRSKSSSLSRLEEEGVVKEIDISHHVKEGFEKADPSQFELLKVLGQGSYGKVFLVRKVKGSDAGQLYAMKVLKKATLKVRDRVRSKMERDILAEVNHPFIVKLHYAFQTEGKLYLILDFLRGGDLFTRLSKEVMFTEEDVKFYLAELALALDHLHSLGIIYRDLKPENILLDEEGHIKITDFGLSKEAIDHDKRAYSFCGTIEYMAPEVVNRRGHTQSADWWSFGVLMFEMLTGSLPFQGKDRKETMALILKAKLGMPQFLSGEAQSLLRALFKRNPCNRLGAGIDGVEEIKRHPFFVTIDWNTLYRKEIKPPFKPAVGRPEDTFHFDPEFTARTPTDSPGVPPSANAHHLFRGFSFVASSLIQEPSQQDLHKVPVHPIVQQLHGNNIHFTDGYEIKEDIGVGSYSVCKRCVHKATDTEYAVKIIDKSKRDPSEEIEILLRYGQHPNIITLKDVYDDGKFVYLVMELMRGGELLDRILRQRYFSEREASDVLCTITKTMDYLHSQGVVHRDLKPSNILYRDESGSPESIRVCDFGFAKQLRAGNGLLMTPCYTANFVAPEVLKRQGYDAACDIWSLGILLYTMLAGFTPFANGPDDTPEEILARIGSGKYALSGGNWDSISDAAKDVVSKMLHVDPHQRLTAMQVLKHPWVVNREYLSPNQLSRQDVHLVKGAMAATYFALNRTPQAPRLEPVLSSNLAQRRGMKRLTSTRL

[4] = target: Histone-lysine N-methyltransferase SETD2 (Homo sapiens) (UniProt Q9BYW2); assay: Selectivity interaction (Methyltransferase screen (radiometric assays, panel of 8 PRMTs, 21 protein lysine methyltransferases, 3 DNA methyltransferases, and one RNA methyltransferase)) EUB0000271b SETD2
Chain of Histone-lysine N-methyltransferase SETD2 (Homo sapiens) (Q9BYW2 whole entry): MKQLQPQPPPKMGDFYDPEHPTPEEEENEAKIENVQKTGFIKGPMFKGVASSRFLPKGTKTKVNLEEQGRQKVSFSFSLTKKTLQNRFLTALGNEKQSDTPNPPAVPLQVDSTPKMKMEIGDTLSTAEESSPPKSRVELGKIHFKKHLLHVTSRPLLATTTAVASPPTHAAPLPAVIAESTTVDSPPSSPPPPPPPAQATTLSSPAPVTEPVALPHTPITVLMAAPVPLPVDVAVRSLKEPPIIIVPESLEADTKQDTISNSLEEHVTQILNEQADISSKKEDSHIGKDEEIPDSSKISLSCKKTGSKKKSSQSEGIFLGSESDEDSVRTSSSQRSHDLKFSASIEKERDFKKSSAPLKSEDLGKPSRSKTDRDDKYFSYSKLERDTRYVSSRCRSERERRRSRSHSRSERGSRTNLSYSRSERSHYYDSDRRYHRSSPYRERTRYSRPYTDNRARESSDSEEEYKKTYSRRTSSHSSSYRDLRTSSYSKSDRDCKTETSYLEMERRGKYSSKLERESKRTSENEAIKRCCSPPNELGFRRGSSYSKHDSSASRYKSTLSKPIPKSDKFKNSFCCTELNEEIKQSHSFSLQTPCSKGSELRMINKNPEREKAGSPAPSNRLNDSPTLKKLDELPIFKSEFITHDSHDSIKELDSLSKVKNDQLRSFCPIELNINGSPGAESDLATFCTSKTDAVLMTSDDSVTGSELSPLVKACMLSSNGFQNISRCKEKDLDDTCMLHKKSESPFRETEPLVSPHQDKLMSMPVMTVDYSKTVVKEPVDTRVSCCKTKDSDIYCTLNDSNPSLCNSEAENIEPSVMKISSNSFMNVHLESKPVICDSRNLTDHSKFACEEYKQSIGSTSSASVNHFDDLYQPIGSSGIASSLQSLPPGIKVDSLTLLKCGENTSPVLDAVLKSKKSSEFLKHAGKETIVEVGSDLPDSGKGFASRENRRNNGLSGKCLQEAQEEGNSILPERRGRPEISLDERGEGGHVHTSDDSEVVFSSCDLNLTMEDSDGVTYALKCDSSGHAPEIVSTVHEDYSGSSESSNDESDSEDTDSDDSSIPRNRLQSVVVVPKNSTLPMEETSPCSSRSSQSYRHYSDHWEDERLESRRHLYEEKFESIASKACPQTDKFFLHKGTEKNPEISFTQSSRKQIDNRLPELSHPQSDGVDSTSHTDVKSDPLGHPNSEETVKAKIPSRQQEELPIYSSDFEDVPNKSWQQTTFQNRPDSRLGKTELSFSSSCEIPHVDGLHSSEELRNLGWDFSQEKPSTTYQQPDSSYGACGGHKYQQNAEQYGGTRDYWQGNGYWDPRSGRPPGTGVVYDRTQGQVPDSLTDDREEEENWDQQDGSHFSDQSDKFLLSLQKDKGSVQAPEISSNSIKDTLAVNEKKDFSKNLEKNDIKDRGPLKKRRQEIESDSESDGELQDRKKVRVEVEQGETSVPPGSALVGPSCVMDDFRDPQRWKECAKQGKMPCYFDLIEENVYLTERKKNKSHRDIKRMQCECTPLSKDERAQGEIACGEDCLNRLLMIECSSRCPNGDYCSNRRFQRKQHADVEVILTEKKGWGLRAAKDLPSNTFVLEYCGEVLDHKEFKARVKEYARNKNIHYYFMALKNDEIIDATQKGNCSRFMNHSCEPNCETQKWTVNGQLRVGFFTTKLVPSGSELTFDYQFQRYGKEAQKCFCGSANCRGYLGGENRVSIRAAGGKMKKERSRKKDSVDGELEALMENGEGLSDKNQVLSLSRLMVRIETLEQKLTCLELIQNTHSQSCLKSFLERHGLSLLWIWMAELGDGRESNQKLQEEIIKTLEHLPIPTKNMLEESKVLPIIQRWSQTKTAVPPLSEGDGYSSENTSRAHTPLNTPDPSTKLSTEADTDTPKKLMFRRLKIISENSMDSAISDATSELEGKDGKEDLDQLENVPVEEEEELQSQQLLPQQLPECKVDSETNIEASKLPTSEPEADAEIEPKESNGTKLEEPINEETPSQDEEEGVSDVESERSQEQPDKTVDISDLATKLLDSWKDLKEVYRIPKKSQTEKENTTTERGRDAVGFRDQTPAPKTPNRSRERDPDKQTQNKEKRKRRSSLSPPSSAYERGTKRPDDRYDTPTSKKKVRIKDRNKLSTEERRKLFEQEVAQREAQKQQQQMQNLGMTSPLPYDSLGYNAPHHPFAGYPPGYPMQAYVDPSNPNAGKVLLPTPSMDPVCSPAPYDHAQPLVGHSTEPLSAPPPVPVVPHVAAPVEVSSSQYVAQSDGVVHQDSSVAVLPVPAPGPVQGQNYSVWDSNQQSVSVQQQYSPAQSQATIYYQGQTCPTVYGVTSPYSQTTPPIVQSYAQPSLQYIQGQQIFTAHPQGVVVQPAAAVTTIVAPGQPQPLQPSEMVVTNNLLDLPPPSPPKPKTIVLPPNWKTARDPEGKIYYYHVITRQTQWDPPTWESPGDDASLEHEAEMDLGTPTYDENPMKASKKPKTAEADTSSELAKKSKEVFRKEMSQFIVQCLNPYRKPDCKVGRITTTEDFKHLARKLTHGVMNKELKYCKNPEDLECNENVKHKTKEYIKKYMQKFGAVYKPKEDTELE

[5] = target: Ribosomal protein S6 kinase alpha-1 (Homo sapiens, UniProt Q15418); assay: Selectivity interaction (Millipore kinase profiler) EUB0000124b RPS6KA1; conditions: at 10 µM
Chain of Ribosomal protein S6 kinase alpha-1 (Q15418 whole entry): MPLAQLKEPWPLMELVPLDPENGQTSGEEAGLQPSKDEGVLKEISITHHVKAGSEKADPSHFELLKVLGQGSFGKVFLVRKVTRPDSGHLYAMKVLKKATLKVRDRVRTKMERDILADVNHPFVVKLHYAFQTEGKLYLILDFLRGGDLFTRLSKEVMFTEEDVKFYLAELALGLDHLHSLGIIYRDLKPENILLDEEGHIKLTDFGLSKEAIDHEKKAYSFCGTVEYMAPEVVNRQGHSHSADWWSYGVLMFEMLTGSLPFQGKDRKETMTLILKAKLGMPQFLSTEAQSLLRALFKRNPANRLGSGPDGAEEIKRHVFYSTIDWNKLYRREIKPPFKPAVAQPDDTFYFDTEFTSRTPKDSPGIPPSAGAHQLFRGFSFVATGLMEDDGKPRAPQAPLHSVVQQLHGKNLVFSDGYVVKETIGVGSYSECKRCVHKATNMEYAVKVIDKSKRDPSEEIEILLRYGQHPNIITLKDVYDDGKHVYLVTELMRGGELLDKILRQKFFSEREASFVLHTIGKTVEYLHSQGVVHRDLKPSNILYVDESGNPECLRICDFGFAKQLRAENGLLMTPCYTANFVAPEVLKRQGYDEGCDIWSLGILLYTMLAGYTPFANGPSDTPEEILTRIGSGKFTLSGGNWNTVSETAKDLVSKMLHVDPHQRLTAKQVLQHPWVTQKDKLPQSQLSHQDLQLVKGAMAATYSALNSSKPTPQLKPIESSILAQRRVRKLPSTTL

[6] = target: T2, Mitogen-activated protein kinase kinase kinase 13 (Homo sapiens) (UniProt O43283); assay: Selectivity interaction (KinomeScan (DiscoverX)) EUB0000045b MAP3K13
T2 sequence (whole entry): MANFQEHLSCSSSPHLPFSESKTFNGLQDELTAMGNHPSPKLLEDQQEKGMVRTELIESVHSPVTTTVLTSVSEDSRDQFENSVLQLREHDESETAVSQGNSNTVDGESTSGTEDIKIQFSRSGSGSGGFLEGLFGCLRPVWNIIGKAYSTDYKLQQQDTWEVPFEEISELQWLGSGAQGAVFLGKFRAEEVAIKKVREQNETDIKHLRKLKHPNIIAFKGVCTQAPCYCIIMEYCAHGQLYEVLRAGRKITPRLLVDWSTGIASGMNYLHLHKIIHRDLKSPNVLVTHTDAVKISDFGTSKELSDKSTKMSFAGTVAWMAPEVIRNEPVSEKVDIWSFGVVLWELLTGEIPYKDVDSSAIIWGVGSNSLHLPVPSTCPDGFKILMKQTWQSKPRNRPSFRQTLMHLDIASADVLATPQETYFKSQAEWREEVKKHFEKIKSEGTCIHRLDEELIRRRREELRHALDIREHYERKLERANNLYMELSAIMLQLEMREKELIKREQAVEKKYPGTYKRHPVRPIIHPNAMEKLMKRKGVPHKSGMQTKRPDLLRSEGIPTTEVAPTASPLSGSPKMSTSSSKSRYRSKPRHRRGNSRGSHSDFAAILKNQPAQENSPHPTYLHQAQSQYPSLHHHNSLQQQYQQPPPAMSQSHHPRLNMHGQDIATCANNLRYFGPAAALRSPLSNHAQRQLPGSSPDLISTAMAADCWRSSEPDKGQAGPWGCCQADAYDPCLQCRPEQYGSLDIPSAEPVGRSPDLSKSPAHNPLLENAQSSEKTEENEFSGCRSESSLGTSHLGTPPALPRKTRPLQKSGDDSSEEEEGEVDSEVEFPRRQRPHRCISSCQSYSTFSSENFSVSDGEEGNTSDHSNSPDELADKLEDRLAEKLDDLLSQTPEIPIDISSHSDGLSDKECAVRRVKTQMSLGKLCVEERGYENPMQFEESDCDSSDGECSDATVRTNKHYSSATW

[7] = target: T3, Serine/threonine-protein kinase ULK3 (Homo sapiens) (UniProt Q6PHR2); assay: Selectivity interaction (KinomeScan (DiscoverX)) EUB0000618a ULK3; conditions: at 10 µM
T3 sequence (whole entry): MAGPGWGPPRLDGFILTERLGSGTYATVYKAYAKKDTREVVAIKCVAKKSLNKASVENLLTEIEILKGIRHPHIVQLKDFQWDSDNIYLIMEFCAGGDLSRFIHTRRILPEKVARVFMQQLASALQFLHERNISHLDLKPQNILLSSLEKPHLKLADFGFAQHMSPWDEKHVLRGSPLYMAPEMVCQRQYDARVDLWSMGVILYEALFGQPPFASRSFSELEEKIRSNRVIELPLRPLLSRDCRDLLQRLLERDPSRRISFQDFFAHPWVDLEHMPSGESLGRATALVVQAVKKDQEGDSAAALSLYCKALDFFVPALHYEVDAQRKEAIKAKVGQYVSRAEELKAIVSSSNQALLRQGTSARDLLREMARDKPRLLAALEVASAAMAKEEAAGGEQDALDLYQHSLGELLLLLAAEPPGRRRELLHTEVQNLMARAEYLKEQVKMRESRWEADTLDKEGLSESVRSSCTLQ

[8] = target: G protein-coupled receptor kinase 4 (Homo sapiens) (UniProt P32298); assay: Selectivity interaction (KinomeScan (DiscoverX)) EUB0000618a GRK4; conditions: at 10 µM
Chain of G protein-coupled receptor kinase 4 (Homo sapiens) (P32298 whole entry, looked up): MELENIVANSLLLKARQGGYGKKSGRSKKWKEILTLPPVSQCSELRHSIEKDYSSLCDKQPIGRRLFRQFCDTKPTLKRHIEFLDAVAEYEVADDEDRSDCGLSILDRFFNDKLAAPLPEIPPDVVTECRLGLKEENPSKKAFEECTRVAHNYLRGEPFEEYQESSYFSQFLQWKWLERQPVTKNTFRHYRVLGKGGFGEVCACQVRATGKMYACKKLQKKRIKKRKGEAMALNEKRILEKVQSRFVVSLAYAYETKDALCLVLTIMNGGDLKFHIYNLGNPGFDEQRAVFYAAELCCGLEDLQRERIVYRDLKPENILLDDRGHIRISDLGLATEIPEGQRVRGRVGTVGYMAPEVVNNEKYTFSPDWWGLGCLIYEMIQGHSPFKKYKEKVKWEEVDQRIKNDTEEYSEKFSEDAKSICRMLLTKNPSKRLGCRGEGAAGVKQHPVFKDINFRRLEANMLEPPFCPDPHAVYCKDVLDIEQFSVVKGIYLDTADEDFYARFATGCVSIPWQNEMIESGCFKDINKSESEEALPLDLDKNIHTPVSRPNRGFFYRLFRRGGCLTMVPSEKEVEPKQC

[9] = target: Cyclin-dependent kinase 2 (Homo sapiens, UniProt P24941); assay: Selectivity interaction (KinomeScan (DiscoverX)) EUB0001619a CDK2; conditions: at 1 µM

SMILES: CNC(=O)Nc1ccc(-c2nc(N3CC4CCC(C3)O4)c3cnn(C4CCC5(CC4)OCCO5)c3n2)cc1
- % of control [1]: 100%
- % of control [2]: 89%

- % of control ([3]; at 1 µM): 88%
- % of control ([3]; at 5 µM): 69%
SMILES: C=CC(=O)Nc1cccc(C(=O)Nc2ccc(Nc3cc(-c4[nH]c(SC)nc4C)ccn3)cc2)c1

SMILES: Cc1cc(C)cc([C@@H]2c3cc(C)ccc3NC(=O)CN2C(=O)c2ccc(Br)s2)c1
- % of activity ([4]; at 1 µM): 104%
- % of activity ([4]; at 10 µM): 101%

- % of control [5]: 116%
SMILES: CC(=O)Nc1cccc(-n2c(=O)n(C3CC3)c(=O)c3c(Nc4ccc(I)cc4F)n(C)c(=O)c(C)c32)c1

SMILES: C=CC(=O)Nc1cc(-n2c(=O)ccc3cnc4ccc(-c5ccc(NS(C)(=O)=O)cc5)cc4c32)ccc1C
- % of control ([6]; at 1 µM): 100%
- % of control ([6]; at 10 µM): 100%

SMILES: O[C@H]1CC[C@H](Nc2ncc3nc(Nc4c(F)cc(F)cc4F)n([C@H]4CCOC4)c3n2)CC1
- % of control [7]: 94%
- % of control [8]: 98%

SMILES: N#Cc1cccc(-c2c[nH]c3ncnc(N4CCOCC4)c23)c1
- % of control [9]: 89%
